Measured values published in patent US20140079785A1, “COMPOSITION COMPRISING LIPID NANOPARTICLES AND A CORTICOSTEROID OR VITAMIN D DERIVATIVE” (priority 2011, published 2014).

Columns and labels:
[1] = In vitro skin penetration and permeation of 3H BMV, Franz type diffusion cells; format: in vitro ADME, porcine; conditions: barrier-impaired versus intact skin, applied in SLN
Experimental: The porcine ears were obtained from newly slaughtered pigs from the Danish Meat Trade College (Roskilde, Denmark). The ears were stored at −20° C. and thawed slowly at 4° C. before shaving and removing full-thickness skin from the back of the ears using a scalpel. Subcutaneous tissue was carefully removed with a scalpel and the skin was cut into appropriate pieces before freezing at −20° C. until use (after no more than 14 days). Two skin pieces were obtained from each ear, and they were balanced with respect to intact and barrier-impaired skin.
Skin barrier impairment was induced by 25 successive tape strippings applying D-Squame® tape discs (Cuderm Corp., Dallas, USA). 225 g/cm^2 pressure on the tape was applied with a D-Squame® tape applicator for 5 sec. (Cuderm Corp., Dallas, USA). […]
Penetration profiles of BMV and lipid were evaluated. ^3H-labelled BMV and ^14C-labelled lipid were used to study the penetration of BMV and lipid particles (distearate and tripalmitate) into intact and barrier-impaired skin.
The skin was mounted on Franz type diffusion cells with the dermis side facing the receptor medium (diffusion area 3.14 cm^2, recipient volume 10 ml, constant stirring, temperature kept at 32° C.). […] The exact amount of formulation applied was determined by weighing the spatula before and after application. After complete incubation, the skin was separated and analyzed. […]

[2] = system: IL-1β, IL-4, IL-8, IL-10 and IL-12; test: Cytokine level in ear tissue (MSD mouse TH1/TH2 9-plex); format: in vivo, mice; conditions: upon treatment with BMV
Experimental: The remaining ear tissue from the 8 mm biopsy was cut into two halves, one of which was tape stripped before analysing the drug concentration and the other was used for cytokine analysis. Both were snap-frozen in liquid nitrogen and stored at −80° C. until the analysis was carried out.
The ear tissue was homogenized in 200 μl lysis buffer using a Precellys® 24 tissue homogenizer with a Cryolys cooling unit from Bertin Technologies (Montigny-le-Bretonneux, France). The lysis buffer was composed of 1 mM Na3VO4, 0.4% (v/v) nonyl phenoxypolyethoxylethanol (NP40) and the protease inhibitor Complete™ from Roche Diagnostics (Mannheim, Germany) dissolved in PBS. […] The supernatant was kept at −80° C. until the MSD® cytokine assay was performed. A determination of the total protein concentration was performed to normalize the sample concentration before the cytokine determination. […] Specific level of the cytokines IFN-γ, IL-1-β, IL-2, IL-4, IL-5, IL-8, IL-10, IL-12 total and TNF-α in the ear tissue were determined with a MSD® mouse TH1/TH2 9-plex Multi-Spot® 96-well 10 spot plate using a MSD® Sector Imager 6000 (Meso Scale Discovery, Gaithersburg, Md., USA). The MSD® assay was optimized for tissue use. […] Washing was repeated 3 times with 0.05% (v/v) polysorbate 20 before finally adding 150 μl read buffer diluted 1:2 in MilliQ water and reading the plate on the MSD® Sector Imager 6000.

**Q.** Which “increase in BMV penetration” value [1] does the source give for `CCCCC(=O)O[C@]1(C(=O)CO)[C@@H](C)C[C@H]2[C@@H]3CCC4=CC(=O)C=C[C@]4(C)[C@@]3(F)[C@@H](O)C[C@@]21C` [BMV, Betamethasone-17-Valerate] here?
**A.** 3-60 fold

**Q.** And the “concentration of IL-5 and TNF-α” value [2]?
**A.** below the detection limit
